Experimental data: article PMC8989888, “Development of optimized drug-like small molecule inhibitors of the SARS-CoV-2 3CL protease for treatment of COVID-19” (Nature Communications, 2022)
“And” between values parts separate entries of the source, which are not always exact repeats. Equal entries are not always repeated.

Tested on: SARS-CoV-2
Assay: microbe, parasite or virus in culture
Format: cell-based

SMILES	inhibition of SARS-CoV-2 (Figure S17A dose-response, replicate values)
CC(C)C[C@H](NC(=O)OCc1cccc(Cl)c1)C(=O)N[C@@H](C[C@@H]1CCNC1=O)C(O)S(=O)(=O)O (stereo partly shown) [EB46]	0 (10×) and 100 (6×) and 37.5 (2×) and 50 and 12.5 (2×)
O=C(N[C@@H](CC1CCCCC1)C(=O)N[C@@H](C[C@@H]1CCNC1=O)C(O)S(=O)(=O)O)OCc1cccc(Cl)c1 (stereo partly shown) [EB48]	0 (11×) and 68.75 and 75 and 93.75 and 25 (3×) and 50 and 37.5 and 12.5 (2×)
CC(C)C[C@H](NC(=O)OCc1ccccc1Cl)C(=O)N[C@@H](C[C@@H]1CCNC1=O)C(O)S(=O)(=O)O (stereo partly shown) [EB54]	0 (6×) and 100 (6×) and 50 (3×) and 12.5 (4×) and 25 (2×)
CC(C)C[C@H](NC(=O)OCc1cccc2ccccc12)C(=O)N[C@@H](C[C@@H]1CCNC1=O)C(O)S(=O)(=O)O (stereo partly shown) [EB55]	0 (10×) and 100 (4×) and 93.75 (2×) and 12.5 (5×)
CC(C)C[C@H](NC(=O)OCc1ccc2ccccc2c1)C(=O)N[C@@H](C[C@@H]1CCNC1=O)C(O)S(=O)(=O)O (stereo partly shown) [EB56]	0 (5×) and 12.5 (8×) and 93.75 (3×) and 87.5 (3×) and 50 and 25
CC(C)CC(NC(=O)OCc1ccccc1)C(=O)NC(CC1CCNC1=O)C(O)S(=O)(=O)O (stereo not shown) [GC376, reference compound]	0 (14×) and 87.5 and 93.75 and 100 and 37.5 and 62.5 and 68.75 and 12.5
O=C(N[C@@H](CC1CCCCC1)C(=O)N[C@@H](C[C@@H]1CCNC1=O)C(O)S(=O)(=O)O)OCc1ccccc1 (stereo partly shown) [SL-4-241]	0 (14×) and 100 (2×) and 81.25 and 25 (2×) and 12.5 (2×)
